Test results as given in patent US6068851A, “Formulation for use in the prevention of pathogen induced diseases including HIV and HSV” (Infectio Recherche, Inc., priority 1999, dated 2000).

Columns and labels:
[1] = Drug release from poloxamer gel (diffusion cell, dialysis membrane, radiolabelled drugs); assay type: physicochemical; settings: body temperature vs 4° C.; data not shown
Excerpt: The poloxamer gel could act as a sustained-drug release system which prolong the local microbicidal activity of the incorporated active agents. We have studied the release of antiviral agents (AZT, ddC, ddi, foscarnet, acyclovir) from our poloxamer gel formulations using radiolabelled drugs and a diffusion cell made of two compartments separated by a dialysis membrane. […] This is explained by the creation of large openings in the intermicellar network of the gel at high temperature which in turn increase the release of the incorporated active agents.

[2] = background statement; cited from earlier work
[3] = tested on: cervical mucosa of rabbits; test: Histopathology of cervix after daily intravaginal application; assay type: in vivo, New Zealand rabbits; settings: once daily intravaginal for two weeks
Description: (§1) Studies have been performed to evaluate the tolerance and toxicity of the poloxamer 407 gel (19.5% w/w) when applied locally once daily for two weeks to the vaginal and cervical mucosae of New Zealand rabbits. The gel was applied in its fluid state to allow a good penetration into the irregularly shaped surfaces of the mucosae. Biopsies of the vaginal and cervical mucosae were performed on days 0, 4, 7 and 14 for histological examinations. […] Such toxicity induced by nonoxynol-9 might favour the entry of pathogens.

[4] = tested on: vaginal and cervical mucosae of rabbits; test: In vivo tolerance/toxicity, vaginal and cervical mucosae, daily intravaginal application; parameters: species or system New Zealand rabbits; settings: once daily intravaginal for two weeks; nonoxynol-9 dose 125 mg
Description: as §1

human cervical cells = test: Viability of human cervical cells with nonoxynol-9, free or in poloxamer gel; assay type: cell-based
Description: FIG. 2 represents the viability of human cervical cells following incubation with different concentrations of nonoxynol-9 either as free drug or incorporated into the poloxamer gel (19.5% w/w).

| Compound | release of drugs from the poloxamer gel [1] | further results |
| --- | --- | --- |
| Nc1nc2c(ncn2COCCO)c(=O)[nH]1 [acyclovir] | increased at body temperature when compared to 4 °C |  |
| Cc1cn([C@H]2C[C@H](N=[N+]=[N-])[C@@H](CO)O2)c(=O)[nH]c1=O [AZT] | increased at body temperature when compared to 4 °C |  |
| O=C(O)P(=O)(O)O [foscarnet] | increased at body temperature when compared to 4 °C |  |
| Nc1ccn([C@H]2CC[C@@H](CO)O2)c(=O)n1 [ddC, 2'-3'-dideoxycytidine] | increased at body temperature when compared to 4 °C |  |
| nonoxynol-9 |  | local inflammation and ulcerations [2]: induce local inflammation and ulcerations; histopathology of cervical mucosa [3]: large accumulation of eosinophiles in the sub-mucosa and induce a major loss of integrity of the epithelial cells; toxicity to vaginal and cervical mucosae [4]: very toxic as evidenced by the presence of epithelial disruption, irritation, necrosis and bleeding; toxicity to human cervical cells (viability) (human cervical cells; different concentrations of nonoxynol-9, free or in gel): highly toxic to the human cervical cells in a dose-dependent manner; concentration at which toxicity starts (human cervical cells; free nonoxynol-9, human cervical cells): 150 µg/mL |
| O=c1[nH]cnc2c1ncn2[C@H]1CC[C@@H](CO)O1 [ddi, 2'-3'-dideoxyinosine] | increased at body temperature when compared to 4 °C |  |
